Tested on: CAL-85-1
Experiment: normalised viability (% of control), CellTiter-Blue; higher = more viable cells (about 100 = DMSO control)
Settings: 100 nM; incubation time: 72 h
Outline: (§1)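 Breast cancer cell lines in 20 µl suspension were seeded onto 384-well plates pre-loaded with compound dissolved in 5 µl medium, then incubated 72 h. CellTiter-Blue reagent (2.5 µl) was added for 2 h at 37 °C and fluorescence read at 560/590 nm. Each plate was normalised to vehicle (100) and a positive kill control (0), with Z'-factor quality control. The value is normalised viability at one listed concentration of the series.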

Point of comparison: `C[C@]1(O)C[C@@H](c2nc(-c3ccc4ccc(-c5ccccc5)nc4c3)c3c(N)nccn32)C1` [OSI-906], normalised viability 86.4%. Against it:
- COc1cc(F)c(F)c(Nc2ccc(I)cc2F)c1NS(=O)(=O)C1(C[C@H](O)CO)CC1 [RDEA119] — higher, 97.3%

Same assay, conditions: 120 nM; incubation time: 72 h

Compound `CC[C@@H]1C(=O)OC[C@@H]1Cc1cncn1C` [Pilocarpine] has a normalised viability of 98.3%.

Same assay, conditions: 400 nM; incubation time: 72 h

`CC[C@@H]1C(=O)OC[C@@H]1Cc1cncn1C` [Pilocarpine] was tested, and the normalised viability was 101%.

Tested on: MDA-MB-231
Experiment: as above
Settings: 0.99 nM; incubation time: 72 h
Outline: as §1

With `C[C@]12CC[C@@H]3c4ccc(OC(=O)N(CCCl)CCCl)cc4CC[C@H]3[C@@H]1CC[C@@H]2O` [Estramustine] the normalised viability was 100%.

Same assay, conditions: 10 nM; incubation time: 72 h

Point of comparison: `Oc1ncnc2[nH]ncc12` [Allopurinol], normalised viability 91.8%. Against it:
- CC(=O)c1c(C)c2cnc(Nc3ccc(N4CCNCC4)cn3)nc2n(C2CCCC2)c1=O — higher, 97.6%
- O=C1CN2Cc3c(ccc(Cl)c3Cl)N=C2N1 [Anagrelide] — higher, 103%
- CC1=C2C[C@H]3[C@@H](CC=C4C[C@@H](O)CC[C@@]43C)[C@@H]2CC[C@]12O[C@@H]1C[C@H](C)CN[C@H]1[C@H]2C [Cyclopamine] — higher, 107%
- C[C@]1(O)C[C@@H](c2nc(-c3ccc4ccc(-c5ccccc5)nc4c3)c3c(N)nccn32)C1 [OSI-906] — lower, 84.4%
- COc1cc(F)c(F)c(Nc2ccc(I)cc2F)c1NS(=O)(=O)C1(C[C@H](O)CO)CC1 [RDEA119] — lower, 73.7%

Same assay, conditions: 40 nM; incubation time: 72 h

Compound `CC[C@@H]1C(=O)OC[C@@H]1Cc1cncn1C` [Pilocarpine] has a normalised viability of 94.9%.

Same assay, conditions: 99 nM; incubation time: 72 h

Compound `C[C@]12CC[C@@H]3c4ccc(OC(=O)N(CCCl)CCCl)cc4CC[C@H]3[C@@H]1CC[C@@H]2O` [Estramustine] has a normalised viability of 109%.

Same assay, conditions: 990 nM; incubation time: 72 h

Work on `C[C@]12CC[C@@H]3c4ccc(OC(=O)N(CCCl)CCCl)cc4CC[C@H]3[C@@H]1CC[C@@H]2O` [Estramustine] yielded a normalised viability of 119%.

Same assay, conditions: 1000 nM; incubation time: 72 h

Point of comparison: `O=C1CN2Cc3c(ccc(Cl)c3Cl)N=C2N1` [Anagrelide], normalised viability 95.5%. Against it:
- CC(=O)c1c(C)c2cnc(Nc3ccc(N4CCNCC4)cn3)nc2n(C2CCCC2)c1=O — lower, 57.7%
- Oc1ncnc2[nH]ncc12 [Allopurinol] — lower, 93.9%
- CC1=C2C[C@H]3[C@@H](CC=C4C[C@@H](O)CC[C@@]43C)[C@@H]2CC[C@]12O[C@@H]1C[C@H](C)CN[C@H]1[C@H]2C [Cyclopamine] — higher, 97.2%
- C[C@]1(O)C[C@@H](c2nc(-c3ccc4ccc(-c5ccccc5)nc4c3)c3c(N)nccn32)C1 [OSI-906] — lower, 79.7%
- COc1cc(F)c(F)c(Nc2ccc(I)cc2F)c1NS(=O)(=O)C1(C[C@H](O)CO)CC1 [RDEA119] — lower, 28.7%

Same assay, conditions: 4000 nM; incubation time: 72 h

In the case of `CC[C@@H]1C(=O)OC[C@@H]1Cc1cncn1C` [Pilocarpine], the normalised viability is reported as 116%.

Same assay, conditions: 10000 nM; incubation time: 72 h

Point of comparison: `CC(=O)c1c(C)c2cnc(Nc3ccc(N4CCNCC4)cn3)nc2n(C2CCCC2)c1=O`, normalised viability 41.2%. Against it:
- Oc1ncnc2[nH]ncc12 [Allopurinol] — higher, 107%
- O=C1CN2Cc3c(ccc(Cl)c3Cl)N=C2N1 [Anagrelide] — higher, 104%
- CC1=C2C[C@H]3[C@@H](CC=C4C[C@@H](O)CC[C@@]43C)[C@@H]2CC[C@]12O[C@@H]1C[C@H](C)CN[C@H]1[C@H]2C [Cyclopamine] — higher, 104%
- C[C@]1(O)C[C@@H](c2nc(-c3ccc4ccc(-c5ccccc5)nc4c3)c3c(N)nccn32)C1 [OSI-906] — higher, 74.3%
- COc1cc(F)c(F)c(Nc2ccc(I)cc2F)c1NS(=O)(=O)C1(C[C@H](O)CO)CC1 [RDEA119] — lower, 29.3%

Same assay, conditions: 40000 nM; incubation time: 72 h

With `CC[C@@H]1C(=O)OC[C@@H]1Cc1cncn1C` [Pilocarpine] the normalised viability was 118%.

Tested on: HDQ-P1
Experiment: as above
Settings: 0.297 nM; incubation time: 72 h
Outline: as §1

With `C[C@]12CC[C@@H]3c4ccc(OC(=O)N(CCCl)CCCl)cc4CC[C@H]3[C@@H]1CC[C@@H]2O` [Estramustine] the normalised viability was 107%.

Same assay, conditions: 2.97 nM; incubation time: 72 h

`C[C@]12CC[C@@H]3c4ccc(OC(=O)N(CCCl)CCCl)cc4CC[C@H]3[C@@H]1CC[C@@H]2O` [Estramustine] gave a normalised viability of 106%.

Same assay, conditions: 3 nM; incubation time: 72 h

Point of comparison: `CC1=C2C[C@H]3[C@@H](CC=C4C[C@@H](O)CC[C@@]43C)[C@@H]2CC[C@]12O[C@@H]1C[C@H](C)CN[C@H]1[C@H]2C` [Cyclopamine], normalised viability 89.1%. Against it:
- CC(=O)c1c(C)c2cnc(Nc3ccc(N4CCNCC4)cn3)nc2n(C2CCCC2)c1=O — higher, 95.2%
- Oc1ncnc2[nH]ncc12 [Allopurinol] — higher, 95.9%
- O=C1CN2Cc3c(ccc(Cl)c3Cl)N=C2N1 [Anagrelide] — higher, 116%
- C[C@]1(O)C[C@@H](c2nc(-c3ccc4ccc(-c5ccccc5)nc4c3)c3c(N)nccn32)C1 [OSI-906] — lower, 79.4%
- COc1cc(F)c(F)c(Nc2ccc(I)cc2F)c1NS(=O)(=O)C1(C[C@H](O)CO)CC1 [RDEA119] — lower, 81.5%

Same assay, conditions: 9.9 nM; incubation time: 72 h

`C[C@]12CC[C@@H]3c4ccc(OC(=O)N(CCCl)CCCl)cc4CC[C@H]3[C@@H]1CC[C@@H]2O` [Estramustine] showed a normalised viability of 109%.

Same assay, conditions: 12 nM; incubation time: 72 h

`CC[C@@H]1C(=O)OC[C@@H]1Cc1cncn1C` [Pilocarpine] showed a normalised viability of 123%.

Same assay, conditions: 30 nM; incubation time: 72 h

Point of comparison: `COc1cc(F)c(F)c(Nc2ccc(I)cc2F)c1NS(=O)(=O)C1(C[C@H](O)CO)CC1` [RDEA119], normalised viability 88%. Against it:
- CC(=O)c1c(C)c2cnc(Nc3ccc(N4CCNCC4)cn3)nc2n(C2CCCC2)c1=O — higher, 99.9%
- Oc1ncnc2[nH]ncc12 [Allopurinol] — higher, 93.1%
- O=C1CN2Cc3c(ccc(Cl)c3Cl)N=C2N1 [Anagrelide] — higher, 95%
- CC1=C2C[C@H]3[C@@H](CC=C4C[C@@H](O)CC[C@@]43C)[C@@H]2CC[C@]12O[C@@H]1C[C@H](C)CN[C@H]1[C@H]2C [Cyclopamine] — higher, 106%
- C[C@]1(O)C[C@@H](c2nc(-c3ccc4ccc(-c5ccccc5)nc4c3)c3c(N)nccn32)C1 [OSI-906] — lower, 83.9%

Same assay, conditions: 100 nM; incubation time: 72 h

Point of comparison: `CC(=O)c1c(C)c2cnc(Nc3ccc(N4CCNCC4)cn3)nc2n(C2CCCC2)c1=O`, normalised viability 99.5%. Against it:
- Oc1ncnc2[nH]ncc12 [Allopurinol] — lower, 91.8%
